Reference: patent US8378117B2 (priority 2005, dated 2013)
Where two headings read alike, the source gives them in different places.

What was measured:
[1] = target: T1, CB1 receptor (Homo sapiens, UniProt P21554); assay: Binding assay for CB1 agonists or inverse agonists (SK-N-MC membranes, [3H]-CP-55,940); conditions: for inhibition at 0.2 µM: read-out: CB1 receptor binding percent inhibition, test concentration 0.2 μM (footnote 2)
T1 construct: expressed in transfected cells
Summary of the method: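 Radioligand displacement: [3H]-CP-55,940 at […], 90 min at 30° C, pH 7.5 Tris buffer with 0.5 mg/mL fatty-acid-free BSA, using semi-purified membranes of human-CB1-transfected SK-N-MC cells. Bound counts collected on GF/C filters, 10 uM WIN 55,212 for non-specific; IC50 from percent inhibition over several concentrations.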

[2] = target: T1, CB1 receptor; assay: cell-based
From the text: The CB1 and CB2 receptors are G-protein coupled receptors (GPCR), which influence cell function via the Gi-protein. These receptors modulate the activity of intracellular adenylate cyclase, which in turn produces the intracellular signal messenger cyclic-AMP (cAMP).
At baseline, or during non-ligand bound conditions, these receptors are constitutively active and tonically suppress adenylate cyclase activity. The binding of an agonist causes further receptor activation and produces additional suppression of adenylate cyclase activity. The binding of an inverse agonist inhibits the constitutive activity of the receptors and results in an increase in adenylate cyclase activity.
By monitoring intracellular adenylate cyclase activity, the ability of compounds to act as agonists or inverse agonists can be determined.
Test compounds were evaluated in SK-N-MC cells which, using standard transfection procedures, were stably transfected with human cDNA for pcDNA3-CRE β-gal and pcDNA3 CB1 receptor (human) or pcDNA3 CB2 receptor (human). By expressing CRE β-gal, the cells produced β-galactosidase in response to CRE promoter activation by cAMP. Cells expressing CRE β-gal and either the human CB1 or CB2 receptor will produce less β-galactosidase when treated with a CB1/CB2 agonist and will produce more β-galactosidase when treated with a CB1/CB2 inverse agonist.
The cells were grown in 96-well plates under standard cell culture conditions at 37° C. in a 5% CO2 atmosphere and culture media (wherein the media was supplemented with 2 mM L-glutamine, […] sodium pyruvate, 10% FBS (fetal bovine serum) and antibiotics).
The change in forskolin induced β-galactosidase activity was determined by setting a vehicle treated cell's activity value at 100% and expressing the β-galactosidase activity measured in a corresponding compound treated cell as a percent of the vehicle treated cell activity.
The EC50 value for functional activity for compounds tested was calculated by linear regression and was obtained from studies in which varying compound concentrations were used.
Where an EC50 value was not obtained for a test compound, the value shown (in %) represents change in functional activity and was obtained from a study in which one compound concentration was used.

[3] = target: T2, CB2 receptor (Homo sapiens, UniProt P34972); assay: Binding assay for CB2 agonists or inverse agonists (SK-N-MC membranes, [3H]-CP-55,940); conditions: for CB2 receptor binding percent inhibition: test concentration not stated
T2 construct: expressed in transfected cells
Summary of the method: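 IC50 came from percent-inhibition data over several compound concentrations, fitted by linear regression. Binding used semi-purified membranes of human CB2-transfected SK-N-MC cells, 90 min at 30 °C, pH 7.5 Tris-HCl with MgCl2, EDTA and BSA, then filtration and scintillation counting.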

[4] = Cannabinoid CB1 Receptor Binding IC50, calculated by linear regression from percent inhibition at various test concentrations
[5] = read-out: CB1 receptor binding percent inhibition, test concentration 1 μM (footnote 1)
[6] = CB1 Receptor Functional Inverse Agonist EC50, forskolin induced β-galactosidase activity, SK-N-MC cells
[7] = read-out: CB2 receptor binding percent inhibition, test concentration 0.2 μM (footnote 2)
[8] = read-out: CB1 receptor binding percent inhibition
[9] = test concentration 0.2 μM (footnote 2), read-out: CB2 receptor binding percent inhibition

T1 sequence (P21554 whole entry): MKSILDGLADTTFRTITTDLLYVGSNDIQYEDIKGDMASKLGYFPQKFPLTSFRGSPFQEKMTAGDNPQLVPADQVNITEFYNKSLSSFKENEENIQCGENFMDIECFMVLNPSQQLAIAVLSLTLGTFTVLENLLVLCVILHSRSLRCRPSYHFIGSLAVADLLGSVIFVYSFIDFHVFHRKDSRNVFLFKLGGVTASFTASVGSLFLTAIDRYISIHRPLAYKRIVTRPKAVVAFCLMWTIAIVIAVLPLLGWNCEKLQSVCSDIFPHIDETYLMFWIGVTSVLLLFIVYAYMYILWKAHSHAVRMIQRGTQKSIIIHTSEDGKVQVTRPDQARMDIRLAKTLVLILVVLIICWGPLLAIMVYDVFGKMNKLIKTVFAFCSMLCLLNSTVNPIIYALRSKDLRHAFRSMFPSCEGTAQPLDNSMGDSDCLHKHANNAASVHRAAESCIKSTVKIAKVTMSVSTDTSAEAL
T2 sequence (P34972 whole entry): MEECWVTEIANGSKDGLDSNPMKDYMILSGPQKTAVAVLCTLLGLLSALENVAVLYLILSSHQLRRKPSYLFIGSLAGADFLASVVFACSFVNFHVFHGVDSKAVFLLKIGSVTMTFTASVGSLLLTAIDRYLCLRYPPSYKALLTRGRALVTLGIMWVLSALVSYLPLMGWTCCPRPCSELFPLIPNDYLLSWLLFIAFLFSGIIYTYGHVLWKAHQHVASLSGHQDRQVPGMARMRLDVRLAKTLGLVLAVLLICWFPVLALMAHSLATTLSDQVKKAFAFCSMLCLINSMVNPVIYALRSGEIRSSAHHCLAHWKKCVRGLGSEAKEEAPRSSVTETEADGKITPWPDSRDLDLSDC

`C[C@H](NS(=O)(=O)/C=C/c1nn(-c2ccc(Cl)cc2Cl)c2c1CCCCC2Cc1cccc(Cl)c1)c1ccccc1` (stereo partly drawn) [Cpd 3, (2E)-2-[8-(3-chloro-benzyl)-1-(2,4-dichloro-phenyl)-1,4,5,6,7,8-hexahydro-cycloheptapyrazol-3-yl]-ethenesulfonic acid [(1S)-1-phenyl-ethyl]-amide] was tested, and the IC50 [1, 4] was 1300 nM, the inhibition at 1 µM [1, 5] was 60% and the EC50 [2, 6] was 70 nM. For the same molecule, the “CB2 receptor binding percent inhibition” value [3] was 26%.
In the case of `COc1ccc(/C=C2\CCCCc3c(C(=O)NN4CCCCC4)nn(-c4ccc(Cl)cc4Cl)c32)cc1` [Cpd 217, (8E)-1-(2,4-dichloro-phenyl)-8-(4-methoxy-benzylidene)-1,4,5,6,7,8-hexahydro-cycloheptapyrazole-3-carboxylic acid piperidin-1-ylamide], the IC50 [1, 4] is reported as 60 nM, the inhibition at 0.2 µM [1] is reported as 75% and the EC50 [2, 6] is reported as 20 nM. The inhibition at 0.2 µM [3, 7] was 52%.
In the case of `O=C(N[C@@H]1c2ccccc2C[C@@H]1O)c1nn(-c2ccc(Cl)cc2Cl)c2c1CCCCC2Cc1cccc(Cl)c1` (single isomer, unassigned) [Cpd 113, (8S*)-8-(3-chloro-benzyl)-1-(2,4-dichloro-phenyl)-1,4,5,6,7,8-hexahydro-cycloheptapyrazole-3-carboxylic acid [(1R,2S)-2-hydroxy-indan-1-yl]-amide], the inhibition at 0.5 µM ([1]; read-out: CB1 receptor binding percent inhibition, test concentration 0.5 μM (footnote 10)) is reported as 44%, the “CB1 receptor binding percent inhibition” value ([1]; test concentration 1 μM (footnote 1), 1 µM) is reported as 62% and the “CB1 receptor binding percent inhibition” value ([1]; test concentration not stated) is reported as 53%. For the same molecule, the EC50 [2, 6] was 100 nM and the “CB2 receptor binding percent inhibition” value [3] was 28%.
`O=C(N[C@@H](CO)c1ccccc1)c1nn(C2CCCCC2)c2c1CCCCC2Cc1cccc(F)c1` (stereo partly drawn) [Cpd 55, 1-cyclohexyl-8-(3-fluoro-benzyl)-1,4,5,6,7,8-hexahydro-cycloheptapyrazole-3-carboxylic acid [(1R)-2-hydroxy-1-phenyl-ethyl]-amide] was tested, and the inhibition at 1 µM [1, 8] was 50%, the EC50 [2, 6] was 400 nM and the “CB2 receptor binding percent inhibition” value [3] was 18%.
In the case of `O=S(=O)(/C=C/c1nn(-c2ccc(F)cc2F)c2c1CCCCC2Cc1cccc(F)c1)NN1CCCCC1` (stereo not shown) [Cpd 123, (2E)-2-[1-(2,4-difluoro-phenyl)-8-(3-fluoro-benzyl)-1,4,5,6,7,8-hexahydro-cycloheptapyrazol-3-yl]-ethenesulfonic acid piperidin-1-ylamide], the inhibition at 1 µM [1, 8] is reported as 47%, the EC50 [2, 6] is reported as 2900 nM and the “CB2 receptor binding percent inhibition” value [3] is reported as 14%.
`C[C@@H](NC(=O)c1nn(-c2ccccc2Cl)c2c1CCCC/C2=C\c1ccc(Cl)cc1)C1CCCCC1` [Cpd 189, (8E)-8-(4-chloro-benzylidene)-1-(2-chloro-phenyl)-1,4,5,6,7,8-hexahydro-cycloheptapyrazole-3-carboxylic acid [(1R)-1-cyclohexyl-ethyl]-amide] showed an IC50 [1, 4] of 50 nM, an inhibition at 0.2 µM [1] of 78% and an EC50 [2, 6] of 10 nM. It also gave an inhibition at 0.2 µM [3, 7] of 17%.
Work on `COc1ccc(/C=C2\CCCCc3c(C(=O)N[C@@H](C)c4ccccc4)nn(-c4ccc(Cl)cc4Cl)c32)cc1` [Cpd 213, (8E)-1-(2,4-dichloro-phenyl)-8-(4-methoxy-benzylidene)-1,4,5,6,7,8-hexahydro-cycloheptapyrazole-3-carboxylic acid [(1S)-1-phenyl-ethyl]-amide] yielded an IC50 [1, 4] of 60 nM, an inhibition at 0.2 µM [1] of 71% and an EC50 [2, 6] of 10 nM. The inhibition at 0.2 µM [3, 7] was 19%.
Work on `COc1ccc(/C=C2\CCCCc3c(C(=O)N[C@@H]4CCc5ccccc54)nn(-c4ccc(Cl)cc4Cl)c32)cc1` [Cpd 216, (8E)-1-(2,4-dichloro-phenyl)-8-(4-methoxy-benzylidene)-1,4,5,6,7,8-hexahydro-cycloheptapyrazole-3-carboxylic acid (1R)-indan-1-ylamide] yielded an IC50 [1, 4] of 9 nM, an inhibition at 0.2 µM [1] of 91% and an EC50 [2, 6] of 50 nM. For the same molecule, the inhibition at 0.2 µM [3, 7] was 33%.
With `COc1ccc(/C=C2\CCCCc3c(C(=O)N[C@H](C)c4ccccn4)nn(-c4ccc(Cl)cc4Cl)c32)cc1` [Cpd 227, (8E)-1-(2,4-dichloro-phenyl)-8-(4-methoxy-benzylidene)-1,4,5,6,7,8-hexahydro-cycloheptapyrazole-3-carboxylic acid [(1R)-1-pyridin-2-yl-ethyl)-amide] the IC50 [1, 4] was 9 nM, the inhibition at 0.2 µM [1] was 90% and the EC50 [2, 6] was 2 nM. For the same molecule, the inhibition at 0.2 µM [3, 7] was 19%.
`CS(=O)(=O)n1nc(C(=O)NCc2ccccc2)c2c1C(Cc1ccc(F)cc1)CCCC2` (stereo not shown) [Cpd 130, 8-(4-fluoro-benzyl)-1-methanesulfonyl-1,4,5,6,7,8-hexahydro-cycloheptapyrazole-3-carboxylic acid benzylamide] showed an IC50 [1, 4] of 60 nM, an inhibition at 0.25 µM ([1]; read-out: CB1 receptor binding percent inhibition, test concentration 0.25 μM (footnote 8)) of 84% and an EC50 ([2]; CB1 Receptor Functional Agonist EC50, SK-N-MC cells, forskolin induced β-galactosidase activity) of less than 30 nM. For the same molecule, the inhibition at 0.25 µM ([3]; read-out: CB2 receptor binding percent inhibition, test concentration 0.25 μM (footnote 8)) was 98%.
For `C[C@H](NS(=O)(=O)/C=C/c1nn(C)c2c1CCCCC2Cc1cccc(F)c1)c1ccccc1` (stereo partly drawn) [Cpd 104, (2E)-2-[8-(3-fluoro-benzyl)-1-methyl-1,4,5,6,7,8-hexahydro-cycloheptapyrazol-3-yl]-ethenesulfonic acid [(1S)-1-phenyl-ethyl]-amide], the inhibition at 1 µM [1, 5] was 19%, the EC50 [2, 6] was 100 nM and the “CB2 receptor binding percent inhibition” value [3] was 93%.
`C[C@H](NC(=O)c1nn(C2CCCCC2)c2c1CCCCC2Cc1cccc(Cl)c1)c1ccccc1` (stereo partly drawn) [Cpd 7, 8-(3-chloro-benzyl)-1-cyclohexyl-1,4,5,6,7,8-hexahydro-cycloheptapyrazole-3-carboxylic acid [(1S)-1-phenyl-ethyl]-amide] was tested, and the IC50 ([1]; calculated by linear regression from percent inhibition at various test concentrations, read-out: Cannabinoid CB1 Receptor Binding IC50) was 1100 nM, the inhibition at 1 µM [1, 5] was 68% and the “CB2 receptor binding percent inhibition” value [3] was 12%.
`C[C@H](NC(=O)c1nn(-c2ccc(Cl)cc2Cl)c2c1CCCC/C2=C\c1ccc(Cl)cc1)c1ccccc1` [Cpd 139, (8E)-8-(4-chloro-benzylidene)-1-(2,4-dichloro-phenyl)-1,4,5,6,7,8-hexahydro-cycloheptapyrazole-3-carboxylic acid [(1S)-1-phenyl-ethyl]-amide] was tested, and the IC50 [1, 4] was 50 nM, the inhibition at 0.2 µM [1] was 72% and the inhibition at 0.2 µM [3, 7] was 30%.
In the case of `O=C(NC1CCC1)c1nn(C2CCCCC2)c2c1CCCCC2Cc1cccc(Cl)c1` (stereo not shown) [Cpd 36, 8-(3-chloro-benzyl)-1-cyclohexyl-1,4,5,6,7,8-hexahydro-cycloheptapyrazole-3-carboxylic acid cyclobutylamide], the inhibition at 1 µM [1, 5] is reported as 25% and the “CB2 receptor binding percent inhibition” value [3] is reported as 0%.
For `O=C(NC1C2CC3CC(C2)CC1C3)c1nn(-c2ccc(Cl)cc2Cl)c2c1CCCCC2Cc1cccc(Cl)c1` (stereo not shown) [Cpd 17, 8-(3-chloro-benzyl)-1-(2,4-dichloro-phenyl)-1,4,5,6,7,8-hexahydro-cycloheptapyrazole-3-carboxylic acid adamantan-2-ylamide], the inhibition at 1 µM [1, 5] was 37% and the “CB2 receptor binding percent inhibition” value [3] was 11%.
`O=C(NN1CCOCC1)c1n[nH]c2c1CCCC/C2=C\c1ccc(Cl)cc1` [Cpd 145, (8E)-8-(4-chloro-benzylidene)-1,4,5,6,7,8-hexahydro-cycloheptapyrazole-3-carboxylic acid morpholin-4-ylamide] was tested, and the inhibition at 0.2 µM [1] was 54% and the inhibition at 0.2 µM [3, 9] was 68%.
For `O=C(N[C@H](CO)c1ccccc1)c1nn(-c2ccc(Cl)cc2Cl)c2c1CCCC[C@@H]2Cc1cccc(Cl)c1` [Cpd 161, (8R)-8-(3-chloro-benzyl)-1-(2,4-dichloro-phenyl)-1,4,5,6,7,8-hexahydro-cycloheptapyrazole-3-carboxylic acid [(1S)-2-hydroxy-1-phenyl-ethyl]-amide], the inhibition at 0.2 µM [1] was 35% and the inhibition at 0.2 µM [3, 9] was 3%.
With `O=C(N[C@H](CCl)c1ccccc1)c1nn(-c2ccc(F)cc2F)c2c1CCCCC2Cc1cccc(F)c1` (stereo partly drawn) [Cpd 169, 1-(2,4-difluoro-phenyl)-8-(3-fluoro-benzyl)-1,4,5,6,7,8-hexahydro-cycloheptapyrazole-3-carboxylic acid [(1S)-2-chloro-1-phenyl-ethyl]-amide] the inhibition at 0.2 µM [1] was 24% and the inhibition at 0.2 µM [3, 9] was 14%.
